Like-named read-outs stand apart in the source and are kept apart here.
Columns and labels:
endogenous hOGA [1] = target: T1, endogenous hOGA (Homo sapiens, UniProt O60502); assay: Cellular O-GlcNAcylation western blot (CTD110.6 antibody), densitometry; type: cell-based; conditions: HEK293 cells, 6 hr; for EC50: densitometry, read-out: EC50 increase of cellular O-GlcNAcylation (western blot)
T1 construct: activity on endogenous hOGA in a cell-based assay with HEK293 cells; endogenous in cells; host or cells: HEK293
T1 sequence (O60502 1-916): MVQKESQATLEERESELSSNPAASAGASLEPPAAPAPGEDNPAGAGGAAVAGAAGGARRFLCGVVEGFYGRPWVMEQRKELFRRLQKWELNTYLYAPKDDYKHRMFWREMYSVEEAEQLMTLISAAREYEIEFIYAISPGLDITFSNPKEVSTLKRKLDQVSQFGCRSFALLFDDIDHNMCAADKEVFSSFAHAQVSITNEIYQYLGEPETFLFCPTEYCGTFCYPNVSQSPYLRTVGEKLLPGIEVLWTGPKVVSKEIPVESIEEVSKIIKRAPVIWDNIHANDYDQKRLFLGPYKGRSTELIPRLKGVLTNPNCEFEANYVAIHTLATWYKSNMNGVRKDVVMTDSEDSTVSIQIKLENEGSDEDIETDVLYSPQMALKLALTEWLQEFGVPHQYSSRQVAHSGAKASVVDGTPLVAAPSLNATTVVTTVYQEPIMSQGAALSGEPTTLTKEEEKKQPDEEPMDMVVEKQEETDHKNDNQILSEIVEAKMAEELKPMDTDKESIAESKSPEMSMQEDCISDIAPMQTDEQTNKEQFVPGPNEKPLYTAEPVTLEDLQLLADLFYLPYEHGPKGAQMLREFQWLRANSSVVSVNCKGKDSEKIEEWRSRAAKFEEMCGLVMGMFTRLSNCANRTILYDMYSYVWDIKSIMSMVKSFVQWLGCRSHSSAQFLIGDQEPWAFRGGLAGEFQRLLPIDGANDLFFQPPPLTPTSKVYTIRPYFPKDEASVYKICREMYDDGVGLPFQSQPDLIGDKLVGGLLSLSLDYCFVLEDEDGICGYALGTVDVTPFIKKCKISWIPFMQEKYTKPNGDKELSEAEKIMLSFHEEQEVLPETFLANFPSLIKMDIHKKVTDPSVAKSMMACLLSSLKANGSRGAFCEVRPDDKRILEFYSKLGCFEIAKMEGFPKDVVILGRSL
Description: (§1) The novel GlcNAcstatin derivatives were investigated for their activity on endogenous hOGA in a cell-based assay with HEK293 cells. […] Furthermore, we determined the EC50 of GlcNAcstatins G and H by O-GlcNAc microscopy assay (Figure 3B; see Figure S1 available online). Elevated total O-GlcNAc levels in HEK293 cells were quantified and normalized over a reference DAPI signal.
For the O-GlcNAc western blots, HEK293 cells were cultured and treated with GlcNAcstatin derivatives as described previously ([Dorfmueller et al., 2009]). Cell lysates were separated by SDS PAGE, and O-GlcNAcylation was detected by western blotting with the anti-O-GlcNAc CTD110.6 antibody and quantified ([Dorfmueller et al., 2009]). To calculate the EC50 values of GlcNAcstatins C, F, and G, the data, background corrected with the untreated cells, were plotted against the inhibitor concentrations using the program GraphPad Prism (http://www.graphpad.com).

CpOGA-wild-type [2] = target: T2, CpOGA-wild-type (Clostridium perfringens, UniProt Q0TR53); conditions: cited from earlier work
hOGA = target: T3, hOGA (Homo sapiens, UniProt O60502); assay: hOGA steady-state kinetics, fluorogenic assay, competitive inhibition fit; type: biochemical
T3 construct: made in house
T3 sequence (O60502 1-916): T1 sequence (O60502 1-916)

hHexA/B [3] = assay: hHexA/B inhibition, fluorogenic 4MU-NAG substrate; type: biochemical, human; conditions: for Ki: read-out: Ki hHex A/B
CpOGA-wild-type [4] = target: T2, CpOGA-wild-type; assay: biochemical; parameters: species or system C. perfringens
endogenous hOGA [5] = target: T1, endogenous hOGA; assay: O-GlcNAc microscopy assay (RL2 immunostaining, IN Cell Analyzer); type: cell-based; conditions: HEK293 cells, 6 hr, normalized over DAPI; read-out: EC50 total O-GlcNAc levels (microscopy assay)
Description: as §1
For the microscopy studies, HEK293 cells were seeded in clear flat-bottom 96 well assay plates (Corning 3340) and grown for 12 hr at 37°C under 5% CO2. Cells were treated with concentrations of GlcNAcstatins G and H (1% final DMSO concentration) for 6 hr. Cells were washed twice with 50 μl PBS and fixed in 3.7% formaldehyde for 10 min at 37°C. After washing with TBST (0.1% Triton X-100) and permeabilized for further 10 min, the cells were blocked with 2% BSA and 0.1% normal donkey serum in TBST for 1 hr at RT, followed by washing twice with TBST. Cells were immunostained with the RL2 O-GlcNAc antibody (1/500) for 12 hr at 4°C and fluorescent secondary (1/500) for 1 hr at RT. Cells were further washed twice with TBS before incubation with DAPI (5 μg/ml) and CellMask (1/25000). Cells were washed twice with TBS and stored in 50 μl PBS. Images were taken and analyzed with the IN Cell Analyzer 1000 system (GE Healthcare).

hHexA/B [6] = conditions: read-out: Ki hHex A/B; cited from earlier work

T2 sequence (Q0TR53 31-624 limits assumed): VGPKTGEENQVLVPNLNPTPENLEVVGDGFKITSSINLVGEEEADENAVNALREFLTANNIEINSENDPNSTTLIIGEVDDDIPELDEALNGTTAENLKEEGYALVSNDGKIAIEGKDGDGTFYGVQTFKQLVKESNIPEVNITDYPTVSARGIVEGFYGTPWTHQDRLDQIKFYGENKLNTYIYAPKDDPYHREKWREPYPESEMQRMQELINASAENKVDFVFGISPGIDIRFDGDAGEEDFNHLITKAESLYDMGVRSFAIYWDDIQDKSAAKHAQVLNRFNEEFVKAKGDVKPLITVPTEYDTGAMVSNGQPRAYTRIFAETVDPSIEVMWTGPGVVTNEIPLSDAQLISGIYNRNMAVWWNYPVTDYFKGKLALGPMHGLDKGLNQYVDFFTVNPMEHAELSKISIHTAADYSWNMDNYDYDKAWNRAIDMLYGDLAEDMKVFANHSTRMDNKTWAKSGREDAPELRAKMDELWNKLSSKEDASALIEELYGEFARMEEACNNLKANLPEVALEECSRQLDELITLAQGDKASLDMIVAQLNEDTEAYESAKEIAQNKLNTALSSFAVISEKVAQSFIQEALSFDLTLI

Compound	EC50 (endogenous hOGA [1])	Ki (hOGA; physiological pH 7.3)	Ki (hHexA/B [3])	Ki (CpOGA-wild-type [4])	EC50 (endogenous hOGA [5])	Ki (hHexA/B [6])	also measured
CC(C)C(=O)N[C@H]1c2nc(CCc3ccccc3)cn2[C@H](CO)[C@@H](O)[C@@H]1O [GlcNAcstatin C]	0.02 µM	0.0032 ± 0.0009 µM	0.6 ± 0.1 µM				Ki (CpOGA-wild-type [2]): 4.6 ± 0.2 pM; pH optimum of hOGA inhibition (hOGA; McIlvaine buffer, pH range 4.9–8.1, 1/Ki versus pH): 6.6; Ki (hOGA; pH 6.6 (maximum potency)): 0.0029 µM
O=C(CCS)N[C@H]1c2nc(CCc3ccccc3)cn2[C@H](CO)[C@@H](O)[C@@H]1O [GlcNAcstatin F]	0.29 µM	0.0112 ± 0.0014 µM	11 ± 0.6 µM	3.2 ± 0.2 pM			
C=CC=CC(=O)NC1c2nc(CCc3ccccc3)cn2C(CO)C(O)C1O (stereo not drawn) [GlcNAcstatin G]	0.02 µM	0.0041 ± 0.0007 µM	> 3700 µM	7.8 ± 0.7 pM	0.003 µM		concentration in culture media inducing maximum levels of O-GlcNAcylation (endogenous hOGA [1]; western blot): 100 nM; IC50 (hHexA/B [3]): ~7000 µM
CCCCC(=O)N[C@H]1c2nc(CCc3ccccc3)cn2[C@H](CO)[C@@H](O)[C@@H]1O [GlcNAcstatin H]		0.0026 ± 0.0003 µM			0.042 µM		Selectivity (hHexA/B/hOGA) (hOGA; ratio of Ki hHexA/B to Ki hOGA): 35,000; Ki (hHexA/B [3]; Cheng-Prusoff, approximate values obtained after including an artificial 100% inhibition point (footnote d)): 100 ± 30 µM
CC(=O)N[C@H]1/C(=N/OC(=O)Nc2ccccc2)O[C@H](CO)[C@@H](O)[C@@H]1O [PUGNAc, reference compound]				5400 ± 400 pM		0.036 µM	
Thiamet-G						750 µM	

— paper PMC3032886, “Cell-Penetrant, Nanomolar O-GlcNAcase Inhibitors Selective against Lysosomal Hexosaminidases” (Chemistry & Biology, 2010)
